The source of these data is US8822532B2, “Bis[thiohydrazide amide] compounds for treating leukemia” (Synta Pharmaceuticals Corp., priority 2009, dated 2014).

Series [1] has as its system metastatic melanoma. As to conditions: cited from earlier work.
Series [2] concerns AML patient blast cells. Kind of series: Flow cytometry (MMP, ROS, GSH, membrane integrity) of primary AML patient blasts treated ex vivo. It counts as cell-based, human. As for the experimental part:
• Cell lines: OCI-AML2, OCI-AML5, OCI-M2 (p53 mutant M6), MV4-11 (FLT3-ITD) • Patients were treated by the Princess Margaret Hospital Leukemia Program. • Primary blasts from 10 AML patients isolated by density gradient or RBC lysis, maintained in a-MEM+10% FBS±10% 5637-conditioned medium. Flow Cytometry Protocol: • Combined staining at 37° for: • MMP—DiIC1(5) 40 nM 30′ • ROS—carboxy-dichlorofluorescin […] or dihydrorhodamine 123 […] for 30′ • GSH—monobromobimane […] for 5′ • Surface membrane integrity—propidium iodide […] for 5′ • Samples run on 3 laser flow cytometer (Gallios, Beckman-Coulter)

As for `CN(NC(=O)CC(=O)NN(C)C(=S)c1ccccc1)C(=S)c1ccccc1` [elesclomol, N-malonyl-bis(N′-methyl-N′-thiobenzoylhydrazide)], in series [1] (elevated LDH population), the “primary endpoint, difference between the two arms” value was “no difference was observed” and the survival endpoint result is recorded as “negative impact”. In series [1] (normal LDH population), the “progression-free survival improvement (primary endpoint)” value is recorded as “achieved” and the safety profile result is reported as “acceptable safety profile”. In series [2] (ex vivo treatment of primary blast cells from patients with AML), the “mitochondrial dysfunction and cell death” value is “rapidly induced mitochondrial dysfunction and cell death”.

Regarding `CN1C(c2ccccc2)=[SH][Cu]23[SH]=C(c4ccccc4)N(C)[N]2C(=O)CC(=O)[N]13` [elesclomol-Cu(II)], in series [2] (Patient #123 blasts, 100nM, 6 hr, FIG. 3a), the ROS entry is recorded as “slight increase in ROS”. In series [2] (Patient #123 blasts, FIG. 3a), the “loss of mitochondrial membrane potential versus outer membrane integrity (dual MMP/PI plots)” value is listed as “loss of mitochondrial membrane potential precedes the loss of outer membrane integrity”, the “reduced GSH” value is “lost co-incident with the loss of MMP” and the “sensitivity of primary patient blasts compared with AML cell lines” value is “more drug-sensitive”. In addition, the sensitivity of blasts entry in series [2] (Patient #126 blasts, FIG. 3d) is on record as “highly sensitive”. Further, in series [2] (Patient #127 blasts, 30 nM, already evident at 6 hr, FIG. 3b), the GSH entry is “loss of GSH”. Further, the sensitivity of blasts entry in series [2] (Patient #131 blasts (higher baseline GSH), FIG. 3c) is “less sensitive”. The “GSH and MMP” value in series [2] (Patient #131 blasts, FIG. 3c) was “loss of GSH co-incident with loss of MMP”. Moreover, the ROS entry in series [2] (Patient #131 blasts, most evident at 30 nM 24 hr, FIG. 3c) is “increased ROS”. For the same compound, in series [2] (all cases), the “depletion of GSH and dissipation of mitochondrial membrane potential” value was “occurred in all cases”. In addition, the “impairment of primary blasts” value in series [2] (all samples, 30 nM) is “significant impairment”.
